Like-named read-outs stand apart in the source and are kept apart here.
What was measured:
Experiment in all cases: biochemical
Type in all cases: biochemical
[1] = target: T1, 363 human kinases (including Aurora A/B/C) (Homo sapiens, UniProt Q8TDC3); conditions: BRSK1, [ATP] 50 µM, read-out: % Enzyme Activity (relative to DMSO controls)
T1 sequence (Q8TDC3 1-778): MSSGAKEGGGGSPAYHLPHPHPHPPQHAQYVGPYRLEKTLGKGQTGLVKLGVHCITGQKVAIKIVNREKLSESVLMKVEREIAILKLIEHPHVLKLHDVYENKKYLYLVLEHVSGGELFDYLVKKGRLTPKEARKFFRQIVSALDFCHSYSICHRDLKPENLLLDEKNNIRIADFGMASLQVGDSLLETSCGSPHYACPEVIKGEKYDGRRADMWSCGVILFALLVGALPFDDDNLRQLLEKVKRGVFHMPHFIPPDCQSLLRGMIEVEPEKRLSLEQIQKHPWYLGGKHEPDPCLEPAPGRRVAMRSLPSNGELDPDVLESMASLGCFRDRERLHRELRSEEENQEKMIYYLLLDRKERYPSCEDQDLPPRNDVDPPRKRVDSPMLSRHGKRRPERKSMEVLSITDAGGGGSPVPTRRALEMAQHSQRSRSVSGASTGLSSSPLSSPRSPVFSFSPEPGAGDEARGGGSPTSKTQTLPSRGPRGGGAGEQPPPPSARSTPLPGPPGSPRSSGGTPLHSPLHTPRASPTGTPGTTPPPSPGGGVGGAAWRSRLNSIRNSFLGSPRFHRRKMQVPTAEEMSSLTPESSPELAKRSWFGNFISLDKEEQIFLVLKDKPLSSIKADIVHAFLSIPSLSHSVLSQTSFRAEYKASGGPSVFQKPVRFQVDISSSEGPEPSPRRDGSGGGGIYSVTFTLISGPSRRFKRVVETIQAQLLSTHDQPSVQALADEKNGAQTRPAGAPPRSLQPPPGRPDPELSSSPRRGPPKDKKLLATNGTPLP
Source text: (§1) However, the Aurora A/B selectivity ratios derived from our in vitro and in vivo data can be compared to prioritize inhibitors.

[2] = target: 363 human kinases (including Aurora A/B/C) (Homo sapiens, UniProt P06493); conditions: read-out: % Enzyme Activity (relative to DMSO controls); for remaining activity at 0.1 µM: 100 nM; for remaining activity at 0.5 µM: 500 nM
Source text: as §1

[3] = target: 363 human kinases (including Aurora A/B/C) (Homo sapiens, UniProt O60674); conditions: JAK2, read-out: % Enzyme Activity (relative to DMSO controls)
Source text: as §1

[4] = target: T2, 363 human kinases (including Aurora A/B/C) (Homo sapiens, UniProt Q86SG6); conditions: NEK8, read-out: % Enzyme Activity (relative to DMSO controls)
T2 sequence (Q86SG6 1-692): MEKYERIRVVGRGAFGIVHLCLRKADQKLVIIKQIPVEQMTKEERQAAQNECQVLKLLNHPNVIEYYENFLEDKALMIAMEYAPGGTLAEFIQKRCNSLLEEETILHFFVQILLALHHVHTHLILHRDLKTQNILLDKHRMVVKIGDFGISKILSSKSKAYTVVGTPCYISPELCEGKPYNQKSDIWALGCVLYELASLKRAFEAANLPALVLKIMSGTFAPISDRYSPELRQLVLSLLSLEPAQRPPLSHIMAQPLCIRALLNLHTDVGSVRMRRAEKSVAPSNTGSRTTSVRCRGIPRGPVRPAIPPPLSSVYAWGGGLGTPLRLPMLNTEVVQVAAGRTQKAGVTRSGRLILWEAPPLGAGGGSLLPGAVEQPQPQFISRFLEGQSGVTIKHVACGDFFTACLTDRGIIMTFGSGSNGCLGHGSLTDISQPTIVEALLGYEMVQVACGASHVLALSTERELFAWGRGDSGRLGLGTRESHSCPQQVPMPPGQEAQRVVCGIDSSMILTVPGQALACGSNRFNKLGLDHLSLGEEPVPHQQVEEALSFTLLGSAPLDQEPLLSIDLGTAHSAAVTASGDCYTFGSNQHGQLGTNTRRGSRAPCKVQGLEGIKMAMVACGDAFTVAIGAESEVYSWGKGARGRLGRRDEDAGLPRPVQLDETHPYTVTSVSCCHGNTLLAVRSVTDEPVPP
Source text: as §1

[5] = target: 363 human kinases (including Aurora A/B/C) (Homo sapiens, UniProt P22607); conditions: FGFR3, [ATP] 30 µM, read-out: % Enzyme Activity (relative to DMSO controls)
Source text: as §1

[6] = target: 363 human kinases (including Aurora A/B/C) (Homo sapiens, UniProt P04626); conditions: ERBB2/HER2, [ATP] 20 µM, read-out: % Enzyme Activity (relative to DMSO controls)
Source text: as §1

[7] = target: 363 human kinases (including Aurora A/B/C) (Homo sapiens, UniProt Q9Y2H1); conditions: STK38L/NDR2, read-out: % Enzyme Activity (relative to DMSO controls)
Source text: as §1

[8] = target: 363 human kinases (including Aurora A/B/C) (Homo sapiens, UniProt P50750); conditions: [ATP] 10 µM, read-out: % Enzyme Activity (relative to DMSO controls); for remaining activity at 0.1 µM: 100 nM; for remaining activity at 0.5 µM: 500 nM
Source text: as §1

[9] = target: 363 human kinases (including Aurora A/B/C) (Homo sapiens, UniProt P36894); conditions: ALK3/BMPR1A, [ATP] 1 µM, read-out: % Enzyme Activity (relative to DMSO controls)
Source text: as §1

[10] = target: T3, 363 human kinases (including Aurora A/B/C) (Homo sapiens, UniProt Q16566); conditions: CAMK4, [ATP] 10 µM, read-out: % Enzyme Activity (relative to DMSO controls)
T3 sequence (Q16566 1-473): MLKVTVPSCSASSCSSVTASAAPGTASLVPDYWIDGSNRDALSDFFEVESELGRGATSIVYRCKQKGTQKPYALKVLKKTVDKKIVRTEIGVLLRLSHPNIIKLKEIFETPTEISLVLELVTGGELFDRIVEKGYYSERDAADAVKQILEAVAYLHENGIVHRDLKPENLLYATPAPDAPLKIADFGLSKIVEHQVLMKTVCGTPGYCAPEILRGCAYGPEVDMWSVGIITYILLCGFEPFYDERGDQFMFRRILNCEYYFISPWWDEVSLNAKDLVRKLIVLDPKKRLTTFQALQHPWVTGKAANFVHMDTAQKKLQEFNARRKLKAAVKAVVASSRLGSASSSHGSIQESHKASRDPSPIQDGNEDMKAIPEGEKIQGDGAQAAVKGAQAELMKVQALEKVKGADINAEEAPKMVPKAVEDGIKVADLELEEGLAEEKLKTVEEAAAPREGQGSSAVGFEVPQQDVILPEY
Source text: as §1

[11] = target: 363 human kinases (including Aurora A/B/C) (Homo sapiens, UniProt P16591); conditions: FER, [ATP] 50 µM, read-out: % Enzyme Activity (relative to DMSO controls)
Chain of 363 human kinases (including Aurora A/B/C) (Homo sapiens, UniProt P16591) (P16591 whole entry): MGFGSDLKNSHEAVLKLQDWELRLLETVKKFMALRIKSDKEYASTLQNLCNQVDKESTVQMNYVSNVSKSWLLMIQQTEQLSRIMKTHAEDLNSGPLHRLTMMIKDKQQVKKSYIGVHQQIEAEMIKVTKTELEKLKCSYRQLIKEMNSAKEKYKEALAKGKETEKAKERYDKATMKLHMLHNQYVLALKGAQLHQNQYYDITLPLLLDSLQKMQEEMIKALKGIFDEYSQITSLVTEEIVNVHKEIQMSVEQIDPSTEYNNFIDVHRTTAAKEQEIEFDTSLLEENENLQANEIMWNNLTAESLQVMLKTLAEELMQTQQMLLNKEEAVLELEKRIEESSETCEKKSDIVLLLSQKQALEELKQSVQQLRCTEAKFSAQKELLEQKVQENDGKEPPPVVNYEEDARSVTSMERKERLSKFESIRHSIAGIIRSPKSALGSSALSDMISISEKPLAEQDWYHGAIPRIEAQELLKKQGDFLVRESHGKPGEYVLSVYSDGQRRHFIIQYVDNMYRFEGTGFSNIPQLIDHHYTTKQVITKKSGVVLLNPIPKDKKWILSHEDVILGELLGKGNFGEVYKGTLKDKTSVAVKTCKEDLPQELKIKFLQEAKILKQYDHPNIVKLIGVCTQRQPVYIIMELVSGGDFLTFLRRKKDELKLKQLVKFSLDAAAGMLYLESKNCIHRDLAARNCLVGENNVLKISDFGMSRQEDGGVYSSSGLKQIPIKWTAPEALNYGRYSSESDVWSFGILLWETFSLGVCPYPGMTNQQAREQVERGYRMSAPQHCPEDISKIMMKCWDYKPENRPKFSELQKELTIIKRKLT
Source text: as §1

Chain of 363 human kinases (including Aurora A/B/C) (Homo sapiens, UniProt P50750) (P50750 whole entry): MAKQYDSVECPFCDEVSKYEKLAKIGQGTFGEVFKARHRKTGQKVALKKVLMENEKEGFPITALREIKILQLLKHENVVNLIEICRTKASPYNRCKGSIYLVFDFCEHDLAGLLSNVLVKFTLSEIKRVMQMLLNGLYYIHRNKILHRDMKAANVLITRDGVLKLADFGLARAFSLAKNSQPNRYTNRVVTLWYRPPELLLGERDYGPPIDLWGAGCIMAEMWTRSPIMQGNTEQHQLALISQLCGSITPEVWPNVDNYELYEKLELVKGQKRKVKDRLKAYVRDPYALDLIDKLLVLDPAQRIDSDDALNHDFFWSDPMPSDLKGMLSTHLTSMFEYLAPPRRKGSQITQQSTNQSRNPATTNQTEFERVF
Chain of 363 human kinases (including Aurora A/B/C) (Homo sapiens, UniProt P06493) (P06493 whole entry): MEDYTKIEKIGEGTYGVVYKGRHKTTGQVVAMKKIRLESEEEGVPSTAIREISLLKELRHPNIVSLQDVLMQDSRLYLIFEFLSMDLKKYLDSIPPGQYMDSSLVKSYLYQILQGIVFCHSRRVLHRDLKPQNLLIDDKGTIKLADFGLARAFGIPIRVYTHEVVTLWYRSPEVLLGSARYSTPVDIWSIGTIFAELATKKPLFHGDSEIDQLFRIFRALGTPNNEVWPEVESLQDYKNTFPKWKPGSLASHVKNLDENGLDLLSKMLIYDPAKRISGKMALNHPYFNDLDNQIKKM
Chain of 363 human kinases (including Aurora A/B/C) (Homo sapiens, UniProt P04626) (P04626 23-1255): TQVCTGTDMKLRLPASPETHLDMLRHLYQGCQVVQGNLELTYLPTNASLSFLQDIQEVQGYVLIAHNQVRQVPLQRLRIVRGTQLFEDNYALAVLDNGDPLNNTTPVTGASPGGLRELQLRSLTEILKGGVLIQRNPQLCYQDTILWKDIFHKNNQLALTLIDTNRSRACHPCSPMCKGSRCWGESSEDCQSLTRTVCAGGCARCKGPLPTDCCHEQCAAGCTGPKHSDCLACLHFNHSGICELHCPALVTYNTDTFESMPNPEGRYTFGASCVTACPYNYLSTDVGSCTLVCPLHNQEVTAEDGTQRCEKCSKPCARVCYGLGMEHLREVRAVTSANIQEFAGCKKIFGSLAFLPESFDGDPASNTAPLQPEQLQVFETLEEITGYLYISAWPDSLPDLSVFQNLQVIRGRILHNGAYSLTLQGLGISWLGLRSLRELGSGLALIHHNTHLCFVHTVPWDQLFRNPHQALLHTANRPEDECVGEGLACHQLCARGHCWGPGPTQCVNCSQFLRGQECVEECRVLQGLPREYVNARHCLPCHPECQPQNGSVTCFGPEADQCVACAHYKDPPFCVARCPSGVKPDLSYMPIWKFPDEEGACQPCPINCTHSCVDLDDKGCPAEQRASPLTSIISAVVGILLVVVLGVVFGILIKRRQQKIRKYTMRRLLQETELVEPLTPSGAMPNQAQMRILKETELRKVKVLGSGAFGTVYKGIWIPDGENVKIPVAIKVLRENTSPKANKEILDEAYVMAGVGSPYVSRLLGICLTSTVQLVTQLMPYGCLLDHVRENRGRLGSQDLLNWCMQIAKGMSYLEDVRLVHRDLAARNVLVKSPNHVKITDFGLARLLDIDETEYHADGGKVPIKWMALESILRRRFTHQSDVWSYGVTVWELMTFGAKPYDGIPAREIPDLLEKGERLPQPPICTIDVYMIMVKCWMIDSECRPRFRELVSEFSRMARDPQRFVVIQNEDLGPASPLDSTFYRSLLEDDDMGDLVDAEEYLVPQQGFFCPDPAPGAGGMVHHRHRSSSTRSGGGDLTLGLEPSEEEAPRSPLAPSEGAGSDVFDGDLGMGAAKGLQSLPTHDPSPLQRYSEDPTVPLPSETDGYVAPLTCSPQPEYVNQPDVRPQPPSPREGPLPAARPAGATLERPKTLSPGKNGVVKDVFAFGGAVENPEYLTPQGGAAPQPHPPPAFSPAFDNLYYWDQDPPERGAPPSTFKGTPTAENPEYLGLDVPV
Chain of 363 human kinases (including Aurora A/B/C) (Homo sapiens, UniProt Q9Y2H1) (Q9Y2H1 whole entry): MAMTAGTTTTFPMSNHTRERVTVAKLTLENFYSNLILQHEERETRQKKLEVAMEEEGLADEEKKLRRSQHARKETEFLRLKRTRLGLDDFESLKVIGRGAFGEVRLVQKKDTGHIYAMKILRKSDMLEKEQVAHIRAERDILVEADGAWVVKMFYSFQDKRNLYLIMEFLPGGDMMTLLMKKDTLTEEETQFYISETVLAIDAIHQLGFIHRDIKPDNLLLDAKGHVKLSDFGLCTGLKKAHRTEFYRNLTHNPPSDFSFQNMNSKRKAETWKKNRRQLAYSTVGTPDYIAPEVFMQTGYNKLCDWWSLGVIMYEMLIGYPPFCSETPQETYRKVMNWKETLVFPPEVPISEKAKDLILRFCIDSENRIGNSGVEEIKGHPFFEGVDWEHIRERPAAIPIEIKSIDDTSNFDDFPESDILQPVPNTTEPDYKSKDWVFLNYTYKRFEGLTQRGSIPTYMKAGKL
Chain of 363 human kinases (including Aurora A/B/C) (Homo sapiens, UniProt P36894) (P36894 24-532): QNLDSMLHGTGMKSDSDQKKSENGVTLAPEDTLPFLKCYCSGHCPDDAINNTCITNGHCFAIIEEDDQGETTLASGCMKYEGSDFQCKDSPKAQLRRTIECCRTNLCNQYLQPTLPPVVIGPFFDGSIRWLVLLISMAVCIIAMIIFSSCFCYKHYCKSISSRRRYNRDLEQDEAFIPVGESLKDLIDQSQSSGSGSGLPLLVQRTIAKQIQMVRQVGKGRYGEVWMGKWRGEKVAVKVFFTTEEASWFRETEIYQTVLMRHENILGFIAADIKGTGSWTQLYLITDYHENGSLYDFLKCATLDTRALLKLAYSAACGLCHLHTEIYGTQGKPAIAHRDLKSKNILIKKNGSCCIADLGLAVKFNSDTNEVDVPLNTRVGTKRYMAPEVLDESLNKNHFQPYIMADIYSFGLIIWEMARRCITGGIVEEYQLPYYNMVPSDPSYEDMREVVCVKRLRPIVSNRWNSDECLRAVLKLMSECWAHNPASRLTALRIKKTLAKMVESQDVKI
Chain of 363 human kinases (including Aurora A/B/C) (Homo sapiens, UniProt O60674) (O60674 whole entry): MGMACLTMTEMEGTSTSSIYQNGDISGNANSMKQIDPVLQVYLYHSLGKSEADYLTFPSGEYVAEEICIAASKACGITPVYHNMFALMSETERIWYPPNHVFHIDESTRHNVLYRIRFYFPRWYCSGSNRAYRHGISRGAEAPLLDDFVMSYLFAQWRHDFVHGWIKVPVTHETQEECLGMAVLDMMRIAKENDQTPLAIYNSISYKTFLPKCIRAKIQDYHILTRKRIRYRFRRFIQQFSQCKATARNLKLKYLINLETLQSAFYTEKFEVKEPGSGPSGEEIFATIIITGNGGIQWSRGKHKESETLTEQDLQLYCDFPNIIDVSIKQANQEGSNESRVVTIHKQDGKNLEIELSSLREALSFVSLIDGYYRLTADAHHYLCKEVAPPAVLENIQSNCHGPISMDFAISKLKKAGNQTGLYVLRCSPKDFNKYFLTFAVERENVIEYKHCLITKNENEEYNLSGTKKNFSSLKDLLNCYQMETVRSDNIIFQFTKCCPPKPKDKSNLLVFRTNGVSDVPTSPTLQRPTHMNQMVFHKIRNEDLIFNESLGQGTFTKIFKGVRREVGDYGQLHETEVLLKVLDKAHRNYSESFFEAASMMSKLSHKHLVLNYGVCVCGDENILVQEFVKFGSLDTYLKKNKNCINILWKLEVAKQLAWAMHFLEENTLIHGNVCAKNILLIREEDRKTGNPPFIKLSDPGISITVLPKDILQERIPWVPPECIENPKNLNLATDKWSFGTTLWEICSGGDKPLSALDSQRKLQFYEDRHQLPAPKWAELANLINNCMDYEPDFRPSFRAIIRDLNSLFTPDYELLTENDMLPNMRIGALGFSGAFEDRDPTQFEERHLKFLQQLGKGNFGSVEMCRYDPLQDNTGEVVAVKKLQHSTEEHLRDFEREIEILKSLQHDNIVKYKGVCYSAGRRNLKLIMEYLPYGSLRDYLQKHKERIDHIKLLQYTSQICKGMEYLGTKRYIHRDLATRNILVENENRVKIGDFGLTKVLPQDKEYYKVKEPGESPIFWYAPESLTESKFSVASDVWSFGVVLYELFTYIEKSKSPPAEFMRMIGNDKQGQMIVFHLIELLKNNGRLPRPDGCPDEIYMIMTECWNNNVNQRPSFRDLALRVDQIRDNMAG

## O=C(O)[C@]1(Cc2cccc(Nc3nccs3)n2)CC[C@@H](Oc2cccc(Cl)c2F)CC1 [MK-5108]
[1]; 100 nM
  remaining activity at 0.1 µM: 95.8%
[1]; 500 nM
  remaining activity at 0.5 µM: 82.2%
[2]; CDK1/cyclin A, [ATP] 10 µM
  remaining activity at 0.1 µM: 92.7%
  remaining activity at 0.5 µM: 76.5%
[2]; CDK1/cyclin B, [ATP] 20 µM
  remaining activity at 0.1 µM: 95.3%
  remaining activity at 0.5 µM: 64%
[2]; CDK1/cyclin E, [ATP] 20 µM
  remaining activity at 0.1 µM: 101%
  remaining activity at 0.5 µM: 84.6%
[3]; 100 nM
  remaining activity at 0.1 µM: 31.1%
[3]; 500 nM
  remaining activity at 0.5 µM: 7.8%
[4]; 100 nM
  remaining activity at 0.1 µM: 81.2%
[4]; 500 nM
  remaining activity at 0.5 µM: 82.2%
[5]; 100 nM
  remaining activity at 0.1 µM: 64.9%
[5]; 500 nM
  remaining activity at 0.5 µM: 31.5%
[6]; 100 nM
  remaining activity at 0.1 µM: 100%
[6]; 500 nM
  remaining activity at 0.5 µM: 111%
[7]; 100 nM
  remaining activity at 0.1 µM: 99.6%
[7]; 500 nM
  remaining activity at 0.5 µM: 97.8%
[8]; CDK9/cyclin K
  remaining activity at 0.1 µM: 94%
  remaining activity at 0.5 µM: 106%
[8]; CDK9/cyclin T1
  remaining activity at 0.1 µM: 124%
  remaining activity at 0.5 µM: 115%
[9]; 100 nM
  remaining activity at 0.1 µM: 64.3%
[9]; 500 nM
  remaining activity at 0.5 µM: 49.6%
[10]; 100 nM
  remaining activity at 0.1 µM: 93.4%
[10]; 500 nM
  remaining activity at 0.5 µM: 99.8%
[11]; 100 nM
  remaining activity at 0.1 µM: 87%
[11]; 500 nM
  remaining activity at 0.5 µM: 49.8%
